# According to PMC11551755, “Structure-based discovery of first inhibitors targeting the helicase activity of human PIF1” (Nucleic Acids Research, 2024):
# Like-named read-outs stand apart in the source and are kept apart here.
# Biological target: T1, hPIF1HD (Homo sapiens, UniProt Q9H611)
# T1 construct: the hPIF1HD construct starts at residue Gln 206 and ends at Leu 620; hexa-histidine tag (N, cleaved yes); made in house; host or cells: ArcticExpress BL21(DE3) E. coli (Agilent Technologies)
# T1 sequence (Q9H611 206-620): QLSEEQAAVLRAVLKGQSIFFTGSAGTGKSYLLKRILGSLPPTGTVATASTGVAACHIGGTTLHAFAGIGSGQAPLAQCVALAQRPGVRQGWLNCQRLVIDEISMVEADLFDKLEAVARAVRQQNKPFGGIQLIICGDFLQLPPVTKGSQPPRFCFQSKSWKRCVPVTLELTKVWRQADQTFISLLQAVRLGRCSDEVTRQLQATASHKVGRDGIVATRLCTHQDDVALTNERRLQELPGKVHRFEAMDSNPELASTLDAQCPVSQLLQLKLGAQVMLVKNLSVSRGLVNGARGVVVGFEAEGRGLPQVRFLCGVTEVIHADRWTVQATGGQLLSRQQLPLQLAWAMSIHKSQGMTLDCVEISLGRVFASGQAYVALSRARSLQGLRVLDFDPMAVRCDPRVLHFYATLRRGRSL
# Test: ssDNA d(T)55 binding assay (EMSA), wild-type hPIF1HD
# Conditions: 5 mM AMP-PNP, read-out: IC50 for inhibition of hPIF1HD ssDNA binding, WT
# Experimental: DNA binding of hPIF1HD was assayed using a ^32P-5′ end-labelled oligo d(T)55 substrate (0.25 nM), under the same buffer conditions described for helicase assays, but with AMP-PNP instead of ATP. Reaction products were resolved on 5% poly-acrylamide gels (29:1 acrylamide:bis-acrylamide) using 0.25× TBE running buffer ([19],[28]). Gels were processed and reaction products quantified by phosphorimaging and IC50 values determined as described above.
# In the hPIF1HD/AMP-PNP/1 structure, the compound 1 binding site is largely between domains 2A and 2B and is absent in the modelled hPIF1HD-ssDNA complex (Figure 2), due to the large relative movement of domain 2B required for ssDNA binding, with or without bound nucleotide ([19],[34],[35],[47]). […] To test this, we assayed binding to a radiolabelled oligo d(T)55 substrate under helicase reaction conditions, with AMP-PNP instead of ATP, in the presence of the same SMIs selected for helicase IC50 analysis (Table 1). hPIF1HD was used rather than FLhPIF1 to eliminate the non-specific DNA binding activity of the N-terminal domain ([27],[29]), and complexes were resolved by gel electrophoresis (electrophoretic mobility shift assay, EMSA). […] With an increasing concentration of compound 1C (or other analogues of 1) or a derivative, progressive inhibition of ssDNA binding was observed, allowing determination of IC50 values for most compounds tested. It was not possible to obtain data for compounds 3, 7, 8 and 9 due to retention of substrate in the gel wells, possibly due to low solubility of the compounds (Supplementary Figure S10).
# Figure 4. Inhibition of hPIF1HD ssDNA binding by compound 1 and derivatives. Binding reactions were assembled under helicase reaction conditions but with 0.25 nM radiolabelled oligo d(T)55, 2 nM hPIF1HD, 5 mM AMP-PNP and 0.0078–2 mM SMI. Products were resolved by EMSA for quantification and IC50 determination (n = 3 repeats). Bound ssDNA was calculated as the sum of the major and minor species, interpreted as one or two bound hPIF1HD molecules respectively. See also Supplementary Figure S10. IC50 values are given along with those determined for hPIF1HD variants V258A and V258L (see Supplementary Figure S12). TEXT PRINTED IN THE PICTURE: 1C: IC50 (μM): N.D. | 1E: IC50 (μM): N.D. | 2: IC50 (μM): WT: 224 ± 86; IC50 (μM): V258A: 103 ± 31; IC50 (μM): V258L: 304 ± 88 | 4: IC50 (μM): N.D. | 5: IC50 (μM): WT: 198 ± 54; IC50 (μM): V258A: 79.2 ± 27; IC50 (μM): V258L: 414 ± 45 | 6: IC50 (μM): WT: 722 ± 194; IC50 (μM): V258A: 295 ± 116; IC50 (μM): V258L: 1010 ± 282 | 10: IC50 (μM): WT: 224 ± 59; IC50 (μM): V258A: 152 ± 42; IC50 (μM): V258L: 378 ± 99 | 11: IC50 (μM): WT: 284 ± 110; IC50 (μM): V258A: 151 ± 51; IC50 (μM): V258L: 551 ± 215
# [1] = 0.25 nM d(T)55, 2 nM hPIF1HD, 0.0078–2 mM SMI, n = 3
Structure (SMILES),"IC50 (as printed in Supplementary Figure 12 legend, 2 nM hPIF1HD)",IC50 [1]
CC(=O)c1ccc(-c2csc(N)n2)cc1 [Compound 2],224 ± 86 µM,–
N#Cc1ccc(-c2csc(N)n2)cc1 [Compound 5],–,198 ± 54 µM
Nc1nc(-c2ccc(C(=O)c3ccccc3)cc2)cs1 [Compound 6],–,722 ± 194 µM
CC(=O)Nc1ccc(-c2csc(N)n2)cc1-c1ccc(C)cc1 [Compound 10],–,224 ± 59 µM
CC(=O)Nc1ccc(-c2csc(N)n2)cc1C1=CCNCC1 [Compound 11],–,284 ± 110 µM
